Experiment: Plasma pharmacokinetics following a single intravenous and subcutaneous injection of a combination of formoterol and budesonide
Conditions: for AUC(0-inf): AUCinf; for bioavailability: F (bioavailability); for concentration at 0.0333 hr: male 1-0771, 0.0333 hr; for concentration at 0.0833 hr: male 1-0771, 0.0833 hr; for concentration at 0.167 hr: male 1-0771, 0.167 hr; for concentration at 0.333 hr: male 1-0771, 0.333 hr; for concentration at 0.5 hr: male 1-0771, 0.500 hr; for concentration at 0.75 hr: male 1-0771, 0.750 hr; for concentration at 1 hr: male 1-0771, 1.00 hr; for concentration at 2 hr: male 1-0771, 2.00 hr; for concentration at 4 hr: male 1-0771, 4.00 hr; for concentration at 8 hr: male 1-0771, 8.00 hr; for concentration at 24 hr: male 1-0771, 24.0 hr
Procedure: Formoterol fumarate dehydrate and budesonide were formulated in 2% PEG-400 in saline. 1 male and 1 female non-naive Gottingen minipigs (8 to 12 kg upon receipt per protocol) were utilized. The animals were housed individually.
Each minipig received a single IV injection of the combined formoterol and budesonide formulation followed by testing of the SC doses. Each dose was separated by at least a 3-day washout period. The IV dose was administered by slow bolus (1 minute; 0.017 hr) into the marginal ear vein, whereas the first SC dose was administered as a bolus injection along the back (neck-region) where there was a longitudinal fat depot. The second SC dose was distributed in 5 separate proximal SC injections separated by approximately 2 cm. Blood samples (approximately 4 mL) were collected via the branchiocephalic plexus at pre-dose and at 2, 5, 10, 20, 30 and 45 minutes, and at 1, 2, 4, 8 and 24 hr post-dose. Blood samples were placed in tubes containing K2-EDTA as the anticoagulant. Samples were processed to plasma by centrifugation and stored frozen at approximately −70° C. (+/−15° C.) until shipment for analysis.
Plasma samples were analyzed for formoterol and budesonide using a qualified liquid chromatography/mass spectrometry/mass mass spectrometry (LC/MS/MS) method. The lower limit of quantitation (LLOQ) was 1.00 pg/mL for formoterol and 25.0 pg/mL for budesonide.
Non-compartmental pharmacokinetic parameters were calculated using WinNonlin 5.2 software, NCA model 202, IV infusion input for the IV data and NCA model 200, extravascular input for the SC data. Individual plasma concentrations for each animal were used in the calculation of pharmacokinetic parameters. Nominal collection times and doses were used in the calculations. The area under the plasma concentration-time curve (AUC) was calculated using linear trapezoidal approximation (linear/log interpolation). Concentration values below the assay limit of quantitation were set to zero for calculations. The maximum plasma concentration (Cmax) and the time of its occurrence (Tmax) were verified by inspection. The half-life (t1/2) values were calculated using the last 3 plasma concentrations with nonzero values, if data permitted.

[1] = male, Gottingen, minipig, in vivo, formoterol 0.4 μg/kg SC1 single site, combination, male 1-0771
[2] = male, Gottingen, minipig, in vivo, formoterol 0.4 μg/kg SC5 (5 sites), combination, male 1-0771
[3] = male, Gottingen, minipig, in vivo, Plasma concentration of formoterol, SC1 0.4 μg/kg, combination
[4] = male, Gottingen, minipig, in vivo, Plasma concentration of formoterol, SC5 0.4 μg/kg, combination
[5] = male, Gottingen, minipig, in vivo, iv, 0.4 ug/kg
[6] = male, Gottingen, minipig, in vivo, iv, 0.4 ug/kg, formoterol 0.4 μg/kg IV in combination with budesonide, male 1-0771
[7] = male, Gottingen, minipig, in vivo, iv, Plasma concentration of formoterol, IV 0.4 μg/kg, combination

`COc1ccc(CC(C)NCC(O)c2ccc(O)c(NC=O)c2)cc1` (centres unmarked) [Formoterol, formoterol] showed a tlast (formoterol 0.4 μg/kg IV in combination with budesonide, male 1-0771) of 8.00 h, a tlast (formoterol 0.4 μg/kg SC1 single site, combination, female 2-0623) of 8.00 h and a tlast (formoterol 0.4 μg/kg SC1 single site, combination, male 1-0771) of 24.0 h. For the same compound, the tlast (formoterol 0.4 μg/kg SC5 (5 sites), combination, female 2-0623) was 24.0 h, the tlast (formoterol 0.4 μg/kg SC5 (5 sites), combination, male 1-0771) was 24.0 h and the “partition ratio (plasma Cmax subcutaneous / intravenous)” value (formoterol with budesonide in about 2% PEG-400 in saline) was 0.5. For the same compound, the AUC(0-inf) [1] was 0.627 ng·h/mL, the AUC(0-inf) [2] was 0.579 ng·h/mL and the Cmax [1] was 0.378 ng/mL. The Cmax [2] was 0.217 ng/mL, the bioavailability [1] was 238% and the bioavailability [2] was 219%. The concentration at 0 hr (male, Gottingen, minipig, in vivo, Plasma concentration of formoterol, SC1 0.4 μg/kg, combination, male 1-0771, 0 hr) was 0.00463 ng/mL, the concentration at 0.0333 hr [3] was 0.378 ng/mL and the concentration at 0.0833 hr [3] was 0.294 ng/mL. For the same compound, the concentration at 0.167 hr [3] was 0.147 ng/mL, the concentration at 0.333 hr [3] was 0.121 ng/mL and the concentration at 0.5 hr [3] was 0.161 ng/mL. It also gave a concentration at 0.75 hr [3] of 0.079 ng/mL, a concentration at 1 hr [3] of 0.0833 ng/mL and a concentration at 2 hr [3] of 0.0822 ng/mL. For the same compound, the concentration at 4 hr [3] was 0.0422 ng/mL, the concentration at 8 hr [3] was 0.0152 ng/mL and the concentration at 24 hr [3] was 0.00287 ng/mL. The concentration at 0.0333 hr [4] was 0.133 ng/mL, the concentration at 0.0833 hr [4] was 0.216 ng/mL and the concentration at 0.167 hr [4] was 0.217 ng/mL. It also gave a concentration at 0.333 hr [4] of 0.15 ng/mL, a concentration at 0.5 hr [4] of 0.0938 ng/mL and a concentration at 0.75 hr [4] of 0.0941 ng/mL. For the same compound, the concentration at 1 hr [4] was 0.0801 ng/mL, the concentration at 2 hr [4] was 0.0711 ng/mL and the concentration at 4 hr [4] was 0.0359 ng/mL. It also gave a concentration at 8 hr [4] of 0.0181 ng/mL, a concentration at 24 hr [4] of 0.0013 ng/mL and a Tmax [1] of 0.0333 h. The Tmax [2] was 0.167 h, the Vd [5] was 3.94 L/kg and the clearance [5] was 25.3 mL/min/kg. The AUC(0-inf) [6] was 0.264 ng·h/mL, the Cmax [6] was 0.41 ng/mL and the Tmax [6] was 0.0333 h. The half-life (male, Gottingen, minipig, in vivo, iv, 0.4 ug/kg, t1/2, formoterol 0.4 μg/kg IV in combination with budesonide, male 1-0771) was 2.54 h, the concentration at 0.0333 hr [7] was 0.41 ng/mL and the concentration at 0.0833 hr [7] was 0.0996 ng/mL. For the same compound, the concentration at 0.167 hr [7] was 0.0902 ng/mL, the concentration at 0.333 hr [7] was 0.0689 ng/mL and the concentration at 0.5 hr [7] was 0.057 ng/mL. For the same compound, the concentration at 0.75 hr [7] was 0.0488 ng/mL, the concentration at 1 hr [7] was 0.0813 ng/mL and the concentration at 2 hr [7] was 0.0265 ng/mL. For the same compound, the concentration at 4 hr [7] was 0.0183 ng/mL, the concentration at 8 hr [7] was 0.00533 ng/mL and the half-life (male, Gottingen, minipig, in vivo, t1/2, formoterol 0.4 μg/kg SC1 single site, combination, male 1-0771) was 5.51 h. For the same compound, the half-life (male, Gottingen, minipig, in vivo, t1/2, formoterol 0.4 μg/kg SC5 (5 sites), combination, male 1-0771) was 4.19 h and the “absorption after SC administration” value (single site and divided over 5 sites, combination) was “well absorbed”.

— patent US9132084B2, “Methods for administration and formulations for the treatment of regional adipose tissue” (NEOTHETICS, INC., priority 2009, dated 2015)
